{
  "source": "paper PMC8312464",
  "about": "“Inhibition of heat shock proteins increases autophagosome formation, and reduces the expression of APP, Tau, SOD1 G93A and TDP-43” (Aging (Albany NY), 2021)",
  "key": {"[1]": {"target": "T1, HSP90", "T1 construct": "FLAG-tagged HSP90 expressed in GBM12 cells, immuno-precipitated by its tag", "test": "ATPase activity (ATP-lite luminescence) of immunoprecipitated FLAG-HSP90 on Sepharose beads", "type": "biochemical", "description": "ATPase activity (ATP-lite luminescence) of immunoprecipitated FLAG-HSP90 on Sepharose beads on HSP90 | In a dose-dependent fashion AR12 inhibited the ATPase activities of HSP90, HSP70 and GRP78"}, "[2]": {"target": "T2, GRP78 (Homo sapiens, UniProt P11021)", "T2 construct": "gene HSPA5; GRP78 expressed from a plasmid in GBM12 cells, immuno-precipitated with an antibody to the COOH terminal portion", "T2 sequence (P11021 19-654)": "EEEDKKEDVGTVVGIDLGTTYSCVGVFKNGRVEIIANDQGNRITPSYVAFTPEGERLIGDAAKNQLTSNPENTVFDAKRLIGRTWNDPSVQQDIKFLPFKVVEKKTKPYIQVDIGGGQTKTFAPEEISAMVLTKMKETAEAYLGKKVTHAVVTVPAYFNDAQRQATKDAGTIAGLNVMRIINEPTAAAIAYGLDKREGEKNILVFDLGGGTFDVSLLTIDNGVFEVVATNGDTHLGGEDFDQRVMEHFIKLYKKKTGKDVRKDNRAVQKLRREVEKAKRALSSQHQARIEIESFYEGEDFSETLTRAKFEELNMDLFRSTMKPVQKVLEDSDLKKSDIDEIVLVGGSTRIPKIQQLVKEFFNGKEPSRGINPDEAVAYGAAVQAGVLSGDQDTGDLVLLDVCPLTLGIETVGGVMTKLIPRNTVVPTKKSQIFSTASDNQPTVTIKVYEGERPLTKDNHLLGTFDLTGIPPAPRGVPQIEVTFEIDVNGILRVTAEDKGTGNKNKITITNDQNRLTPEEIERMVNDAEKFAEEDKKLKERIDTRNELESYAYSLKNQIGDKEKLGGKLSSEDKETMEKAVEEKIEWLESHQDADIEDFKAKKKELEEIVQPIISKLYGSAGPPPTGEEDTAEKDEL", "test": "ATPase activity (ATP-lite luminescence) of immunoprecipitated GRP78 on Sepharose beads", "type": "biochemical"}},
  "note": "pIC50: −log10 of the molar value.",
  "data": [
    {"smiles": "NCC(=O)Nc1ccc(-n2nc(C(F)(F)F)cc2-c2ccc3c(ccc4ccccc43)c2)cc1", "note": "[AR12]", "values": [
      {"measurement": "pIC50", "setting": "[1]", "value": "~6.52"},
      {"measurement": "pIC50", "setting": "[2]", "value": "~7.10"}
    ]}
  ]
}
